Results reported in US9549911B2, “Ginger metabolites and uses thereof” (North Carolina A&T State University, priority 2012, dated 2017).

Tests used:
[1] = test system: HCT-116 cells; test: TUNEL apoptosis assay (Part 2); format: cell-based, human; settings: HCT-116, 20 or 40 μM, 24 hours
Description: (§1) HCT-116 and H1299 cells were seeded in 6-well plates at 1×10^5 cells/well and incubated at 37° C. in 5% CO2 incubator. After 24 hours, fresh media supplemented with DMSO (control), [6]-shogaol, M2, M6, or M13 metabolites (20 μM or 40 μM) were added to the wells. After 6 or 24 hours incubation at 37° C. in 5% CO2 incubator, cells were washed and pre-treated for 15 min at room temperature with a solution of 20 μg/ml proteinase K. Cells were then washed twice with phosphate buffer saline pH 7.4 (PBS) and fixed for 10 min at room temperature using 10% neutral formaldehyde solution. After 2 washes in ddH2O, cells were resuspended in 100 μL ddH2O and applied on silanized microscope slides. Slides were incubated overnight at 37° C., and washed twice with PBS. TUNEL assay was then carried out according to the manufacturer's protocol. Cells were observed under 400× power using a Zeiss microscope A1 (Thornwood, N.Y.). 10 fields per slide were evaluated, and TUNEL+ cells (with brown coloration in the nucleus) were expressed as a percentage of the total number of cells contained in a field.

[2] = test system: H-1299 cells; test: TUNEL apoptosis assay (Part 2); format: cell-based, human; settings: H-1299, 20 or 40 μM, 24 hours
Description: as §1

[3] = in vitro; format: cell-based, human; settings: human
Description: (§2) Growth inhibition of human cancer and normal cells. Cell growth inhibition was determined by a MTT colorimetric assay. Human colon cancer cells HCT-116, human lung cancer cells H-1299, human colon fibroblast cells CCD-18Co, and human lung fibroblast cells IMR-90 were plated in 96-well microtiter plates with 3000 cells/well and allowed to attach for 24 h at 37° C. […] After the cells were cultured for 48 h, the medium was aspirated and cells were treated with 200 μL fresh medium containing 2.41 mmol/L MTT. […] The reading reflected the number of viable cells and was expressed as a percentage of viable cells in the control. Both HCT-116 and H-1299 cells were cultured in McCoy's 5A medium. CCD-18Co and IMR-90 cells were cultured in Eagle's modified essential medium (EMEM). All of the above media were supplemented with 10% fetal bovine serum, 1% penicillin/streptomycin, and 1% glutamine, and the cells were kept in a 37° C. incubator with 95% humidity and 5% CO2.

[4] = test system: human colon cancer cells HCT-116; test: MTT growth inhibition of human cancer and normal cells (Part 2); format: cell-based; settings: Homo sapiens; HCT-116, 48 h, 0 to 80 μM
Description: as §2

[5] = test system: human lung cancer cells H-1299; test: as above; format: cell-based; settings: Homo sapiens, NCI-H1299; H-1299, 48 h, 0 to 80 μM
Description: as §2

[6] = in vitro; format: cell-based, human; settings: human; remark: listed apart in the source
Description: as §2

[7] = Kinetic study of [6]-shogaol metabolism to M6 in liver microsomes; format: in vitro ADME; settings: dog liver microsomes 0.1 mg/mL, 30 min
Description: (§3) All incubations were performed in triplicate.

[8] = as above; format: in vitro ADME, mouse; settings: mouse
Description: as §3

[9] = as above; format: in vitro ADME, monkey; settings: cynomolgus, monkey
Description: as §3

[10] = as above; settings: human
Description: To estimate kinetic parameters of metabolism of [6]-shogoal to major product M6 in liver microsomes from human and other species, the incubation conditions were optimized to ensure that formation rate of M6 was in the linear range in relation to incubation time and protein concentration. [6]-Shogaol (7.81, 15.63, 31.25, 62.5, 125, 250, 500, 1000, and 2000 μM) was incubated with liver microsomes from mouse (MLM), rat (RLM), dog (DLM), monkey (CyLM), and human (HLM) (0.1 mg/mL each, respectively) for 30 minutes. All incubations were performed in triplicate. The apparent Km and Vmax values were calculated from analysis of experimental data according to the Michaelis-Menten equation, and the results were graphically represented (for HLM) by an Eadie-Hofstee plot. Kinetic constants were reported as the value+/−S.E. of the parameter estimate.

[11] = as above; format: in vitro ADME, rat; settings: rat
Description: as §3

SMILES: CCCCCC=CC(O)CCc1ccc(O)c(OC)c1 (centres unmarked) [M6, 1-(4′-hydroxy-3′-methoxyphenyl)-4-decen-3-ol]
- induction of apoptosis (TUNEL) versus DMSO [1]: did not display any apoptotic effect
- induction of apoptosis (TUNEL) versus DMSO [2]: did not display any apoptotic effect
- IC50 at 48 h [3]: > 100 µM
- IC50 [4]: 68.8 µM
- IC50 [5]: 61.3 µM
- IC50 at 48 h [6]: > 100 µM
- Vmax of M6 formation [7]: 7.33 +/− 0.43 nanomoles per minute per milligram liver microsomes
- Vmax of M6 formation [8]: 4.10 +/− 0.19 nanomoles per minute per milligram liver microsomes
- Vmax of M6 formation [9]: 2.99 +/− 0.28 nanomoles per minute per milligram liver microsomes
- Vmax of M6 formation [10]: 10.82 +/− 0.47 nanomoles per minute per milligram liver microsomes
- Vmax of M6 formation [11]: 8.19 +/− 0.48 nanomoles per minute per milligram liver microsomes
